Source: US9556417B2, “Reprogramming of cells to a new fate” (The Scripps Research Institute, priority 2010, dated 2017)

Assays:
[1] = tested on: spontaneously contracting colonies (transdifferentiated cardiomyocytes); assay: Calcium imaging and testing of chronotropic agents; assay type: cell-based, mouse; details: 1 μM isoproterenol or 10 μM carbachol; 10 minutes after addition
Method: Cells were loaded with Fluo-4-AM (5 μM, 30 min, 37° C.) (F14201, Invitrogen), and imaged with an Olympus Fluoview 1000 inverted confocal microscope with a 40× oil immersion lens (numerical aperture 1.3). Line scan imaging mode was used to measure spontaneous Ca2^+ transients at 37° C. Image processing and data analysis were performed as previously described (Ouyang, K. et al., J Biol Chem 280, 15898-902 (2005)). For drug testing, all measurements were repeated 10 minutes after the addition of isoproterenol (1 μM; Sigma) or Carbachol (10 μM; Sigma-Aldrich).

[2] = tested on: R1 ES cells; assay: QRT-PCR of markers in differentiating ES cells; assay type: cell-based, mouse; details: treated day 0-2, harvested day 4.5
Method: To further analyze the mechanism of action of the cardiogenic effect seen with these molecules, QRT-PCR was carried out on cells treated from day 0-2 and harvested at day 4.5.
QRT-PCR was carried out to observe the induction of cardiomyogenesis at the transcript level. At day 5, when A83-01 treatment begins, the predominant state is that of a developed primitive streak type population that is yet to display robust expression of markers of cardiac precursors such as Nkx2.5, Isl-1, and c-kit.
Total RNA from each sample was prepared from 5×10^4 cells using RNeasy mini kit (Qiagen). Reverse transcription was carried out by using Reverse Transcription System (Promega) and PCR performed using PCR Super Mix (Invitrogen).

[3] = tested on: R1 ES cells; assay: Serum-free monolayer cardiac differentiation of ES cells, beating colonies; assay type: cell-based, mouse; details: early treatment window
Method: Having identified the first serum-free monolayer condition for cardiac differentiation of ES cells, we sought to test its efficacy as a platform to discover regulators of cardiomyogenesis. A collection of approximately 200 small molecules and growth factors reported to be influential in developmental processes were assembled. R1 ES cells were grown and plated for differentiation on Matrigel in 24-well plates using the media and growth factors described above. The screening collection was then added and removed from each well at specific time points in order to account for different developmental time windows. The collection was screened at days 0-2, 2-5, and 5-7.
Cells are plated at a density of 200,000 cells/well of a 6-well plate in 2.5 ml of ESGM. 6-well plates are coated overnight at 4° C. with 1 ml of Matrigel (BD Bioscience) diluted 50× from stock concentration. 24 hours after plating, or after sufficient colony size was achieved, cells are switched into chemically defined medium (CDM) and treated with 4 uM BIO (Calbiochem) and 20 ng/ml BMP-4 (R&D). CDM contains RPMI 1640, 0.5×N2, 1×B27 (without Vitamin A), 0.5× Glutamax, 0.55 mM beta-mercaptoethanol, 1× non-essential amino acids, 1× nucleosides. At Day 2, medium is changed, and again CDM containing 4 uM BIO with 20 ng/ml BMP-4 is added to the cells. At Day 5, cells are washed once with PBS and medium is changed to CDM containing 100 ng/ml Dkk-1 (R&D). At Day 7, medium is changed, and again CDM containing 100 ng/ml Dkk-1 is added to the cells. At Day 10, cells are trypsinized (0.05% trypsin) (Approximately 5 minutes at 37° C., or until cells begin to detach) and replated onto gelatin coated 6-well plates in CDM with no additional growth factors. By this time, the cells will have formed tight colonies that will be difficult to disrupt (Supplementary FIG. 2b). […] The trypsin is used primarily to detach the cells rather than to dissociate them to a single cell suspension. It is preferable for the colonies to remain intact. The trypsin is briefly quenched with MEF media, cells are centrifuged, and resuspended in CDM for plating. Medium is refreshed as needed to remove dead cells and debris (every 1 to 2 days).

[4] = tested on: mouse embryonic fibroblasts (MEFs); assay: Direct cardiac reprogramming of fibroblasts, contracting patch/colony counts; assay type: cell-based; details: standard reprogramming media with LIF for the first nine days
Text: Having successfully initiated the early cardiogenic program in MEFs, we next sought to induce robust activation of mid-stage cardiac gene expression and to ultimately generate spontaneously contracting patches of cardiac cells, a hallmark of terminal differentiation that is easily observed and quantified. To this end, we treated three-factor transduced MEFs with chemically defined media (CDM) as well as cytokines and small molecules that might enhance cardiogenesis by regulating TGFβ, bone morphogenetic protein (BMP), Hedgehog, Wnt, or Notch pathway activity. Treatments were done individually and in combination, and at different times during the reprogramming process. Despite the general unsuitability of the resulting protocol for iPSC generation, we also explored whether small-molecule inhibition of JAK-STAT (Janus kinase-signal transducer and activator of transcription), PI3K (phosphatidylinositol 3-kinase), or Wnt signalling during the early stages of the protocol might boost the effectiveness of cardiomyogenesis by preventing even a small number of iPSC intermediates from forming. Finally, we experimented with a more gradual transition between different media by lowering FBS concentration step-wise in increments of 1-4% over 3-6 days (immediately prior to switching to CDM). […] During this initial nine-day period, the small-molecule JAK inhibitor JD is continuously kept in the media at a concentration of 0.5 μM. From day nine onwards, the cells are cultured in CDM, with the cardioinductive growth factor BMP4 (Snyder, A. et al., J Cell Biochem 93, 224-32 (2004)) being added at 20 ng/ml for the first five days (FIG. 1b).
All MEFs (129S2/SvPasCrlf) were derived according to WiCell protocols (https://www.wicell.org/index.php?option=com_docman&task=doc_download&gid=687). TTFs were a kind gift of Dr. Hans Schöler. Secondary MEFs were derived as previously described (Wernig, M. et al., Nat Biotechnol 26, 916-24 (2008)). All results were initially obtained and confirmed with the Nebulette-LacZ MEFs; to ensure reproducibility and minimize inter-experimental variation, reported results almost exclusively derive from experiments utilizing secondary dox-inducible MEFs using the optimum induction period. MEFs were initially passaged on gelatin-coated (0.1% for 2 hours at 37° C.) tissue culture dishes in DMEM supplemented with 10% FBS, 2 mM Glutamax and 0.1 mM NEAA (all components from Invitrogen, Carlsbad, Calif.). Prior to viral transduction, cells were seeded onto Matrigel (BD Biosciences, Franklin Lakes, N.J.) or Geltrex (Invitrogen)-coated plates (1:40, overnight at 4° C.) at 3.5×10^4 cells per well of a six well plate (7×10^4 cells for TTFs) in the same media. […]

[5] = tested on: secondary MEFs; assay: Neural transdifferentiation of secondary MEFs with exposure to LIF-containing medium; assay type: cell-based, mouse
Method: NGFP1 Dox-inducible iPS cells (Hanna J. et al., Nature (2009); Hanna, J. et al., Cell 133(2):250-264 (2008)) (Stemgent) were injected into C57BL/6 blastocysts and implanted into surrogate mice (CD1, Harlan). Chimeric embryos were isolated at E12.5-13.5. Heads, developing organs and spinal cords were carefully removed from the embryos and MEFs were prepared and selected as previously described (Hanna J. et al., Nature (2009); Wernig, M. et al., Nat Biotechnol 26(8):916-924 (2008); Hanna, J. et al., Cell 133(2):250-264 (2008)). For reprogramming, secondary MEFs (p3-4) were plated on Geltrex-coated culture dishes at 1.5-2×10^4 cells/cm^2 in MEF medium (Dullbecco's modified Eagle's medium supplemented with 10% fetal bovine serum, 0.1 mM non-essential amino acids, and 2 mM Glutamax). Doxycycline (Sigma-Aldrich, 2-8 μg/ml) treatment was initiated the next morning (Day 0) and continued until the designated day(s). Cells were cultured in MEF medium for an additional day and changed to reprogramming initiation medium (RepM-Ini; knock-out DMEM supplemented with 10% knock-out serum replacer, 5% FBS, 0.1 mM NEAA, 2 mM Glutamax, and 0.055 mM β-mercaptoethanol) for three days. For neural stem/progenitor reprogramming, the medium was changed into neural reprogramming medium (RepM-Neural; Advanced DMEM/F12 and Neurobasal medium were mixed by 1:1 and supplemented with 0.05% bovine serum albumin, 1×N2, 1×B27, 2 mM Glutamax, 0.11 mM β-mercaptoethanol, 20 ng/ml FGF2, 2 ng/ml FGF4, and 20 ng/ml EGF). RepM-Pluri is the same as RepM-Ini, with the addition of 1000 units/ml LIF (Millipore).
Total RNA was extracted from samples at the designated time points using the RNeasy Plus Mini Kit with QiaShredder (Qiagen). One microgram of total RNA per sample was reverse-transcribed using the iScript cDNA synthesis kit (Bio-Rad) and the cDNA was diluted with 130 ul of water. 1/50 of the diluted cDNA was used for quantitative PCR with iQ SYBR Green Supermix on the CFX96 system (Bio-Rad). All qPCR reactions were done in duplicate or triplicate, and the expression data were normalized to both Gapdh and β-actin expression using CFX manager software (Bio-Rad). All primer sequences are listed in previous publications (Hanna J. et al., Nature (2009); Wernig, M. et al., Nat Biotechnol 26(8):916-924 (2008); Greber, B. et al., Cell Stem Cell 6(3):215-226 (2010)).
Samples were washed once with D-PBS (Invitrogen, without Ca^2+ and Mg^2+) and were fixed with a 4% pure-formaldehyde solution (Electron Microscopy Sciences) with 0.15% picric acid (Sigma-Aldrich) in D-PBS for 20 min, followed by three washes with D-PBS. Blocking and permeabilization were done with a 3% BSA (Jackson ImmunoResearch) and 0.3% Triton X-100 (Sigma-Aldrich) solution in D-PBS for 1 hr at room temperature. […]

Compound | decay period (τ) of calcium transients [1] | frequency of spontaneous calcium transients [1] | expression of Brachyury T, Flk-1, GATA-4 and MESP1 [2] | cardiac differentiation / percentage of beating colonies [3] | decline in beating colony number [4] | onset of beating [4] | gene expression of Sox1, Pax6, Nanog, Rex1 ([5]; day 9) | number of PLZF-expressing colonies ([5]; day nine, as little as one day LIF exposure) | Sox17, T, and FGF5 expression ([5]; days 9, 11, and 13) | number of SSEA1-expressing cells ([5]; flow cytometry)
C[N+](C)(C)CCOC(N)=O [carbachol] | opposite effects | opposite effects |  |  |  |  |  |  |  | 
CC(C)NCC(O)c1ccc(O)c(O)c1 (stereo not drawn) [isoproterenol] | shortened | significantly increased | increased | even more potent cardiac inducing effect than BayK 8644 |  |  |  |  |  | 
LIF: leukaemia inhibitory factor, added to standard reprogramming medium |  |  |  |  | ~25 fold | four-day delay | down-regulation of Sox1 and Pax6 with concomitant up-regulation of Nanog and Rex1 | clearly decreased | increased | increases
